Values of other authors in US20090220611A1, “Microparticles With Modified Release of At Least One Active Principle and Oral Pharmaceutical Form Comprising Same” (priority 2005, published 2009).

Conditions: qualitative statement

- water solubility: sparingly water-soluble
SMILES: Nc1nc2c(ncn2COCCO)c(=O)[nH]1 [aciclovir]
